From patent publication US8394825B2, “Compound” (Sterix Limited, priority 2007, dated 2013)

What was measured:
DU145 cells = test: Antiproliferative assay in DU145 cells, WST-1 cell proliferation assay, 96 hours (GI50); type: cell-based; details: Homo sapiens, DU-145, 96 hours post-treatment
Experimental: Antiproliferative assays. DU145 cells were seeded into 96 well microtiter plates (5000 cells/well) and treated with […] of compounds or with vehicle control. At 96 hours post-treatment, live cell counts were determined by WST-1 cell proliferation assay (Roche, Penzberg, Germany), as per manufacturer's instructions. Viability results were expressed as a percentage of mean control values resulting in the calculation of the 50% growth inhibition (GI50). All experiments were performed in triplicate.

Row | SMILES | GI50 (DU145 cells; triplicate) [µM] | melting point [°C] | GI50 (DU145 cells; 50% growth inhibition) [µM]
1 | COc1cc2c(cc1OCc1ccccc1)CCN(Cc1cccc(OC)c1OC)C2 [compound 20, 6-Benzyloxy-7-methoxy-2-(2,3-dimethoxybenzyl)-1,2,3,4-tetrahydroisoquinoline] | 10 to 50 | 106 to 107 | 
2 | COc1cc(CN2Cc3cc(OC)c(O)cc3CC2C)cc(OC)c1 (centres unmarked) [compound 218, 2-(3,5-Dimethoxybenzyl)-1,2,3,4-tetrahydro-7-methoxy-3-methylisoquinolin-6-ol] |  | 155 to 158 | 10 to 50
3 | COc1cccc(COc2cc3c(cc2OC)C(=O)N(Cc2cccc(OC)c2)CC3)c1 [compound 155, 7-Methoxy-2-(3-methoxybenzyl)-6-(3-methoxybenzyloxy)-3,4-dihydro-2H-isoquinolin-1-one] | > 100 | 85 to 86 | 
4 | COc1cc2c(cc1OCc1ccccc1)CCN(Cc1ccccc1)C2 [compound 2, 2-Benzyl-6-benzyloxy-7-methoxy-1,2,3,4-tetrahydroisoquinoline] | 50 to 100 | 97 to 98 | 
5 | COc1cc2c(cc1O)CCN(C(=O)c1ccc(C#N)cc1)C2=O [compound 145, 2-(4-Cyanobenzoyl)-6-hydroxy-7-methoxy-3,4-dihydro-2H-isoquinoline-1-one] | > 100 | 198 to 199 | 
6 | COc1cc2c(cc1OCc1ccccc1)CCN(S(=O)(=O)c1cccc(OC(F)(F)F)c1)C2 [compound 170, 6-Benzyloxy-7-methoxy-2-(3-trifluoromethoxy-benzenesulfonyl)-1,2,3,4-tetrahydroisoquinoline] | > 100 | 118 to 120 | 
7 | COc1cc2c(cc1OCc1ccccc1)CCN(Cc1cccc(F)c1)C2 [compound 22, 6-Benzyloxy-2-(3-fluorobenzyl)-7-methoxy-1,2,3,4-tetrahydroisoquinoline] | > 100 | 77 to 79.5 | 
8 | COc1cc(OC)cc(C(=O)N2CCc3cc(OCc4ccccc4)c(OC)cc3C2)c1 [compound 110, 6-Benzyloxy-2-(3,5-dimethoxybenzoyl)-7-methoxy-1,2,3,4-tetrahydroisoquinoline] | 10 to 50 | 130 to 131 | 
9 | COc1cc(OC)c(OC)cc1CN1CCc2cc(OCc3ccccc3)c(OC)cc2C1 [compound 17, 6-Benzyloxy-7-methoxy-2-(2,4,5-trimethoxybenzyl)-1,2,3,4-tetrahydroisoquinoline] | 10 to 50 | 110 to 111 | 
10 | COc1cc(OC)cc(C(=O)N2CCc3cc(OCc4ccccc4)c(OC)cc3C2=O)c1 [compound 129, 6-(Benzyloxy)-2-(3,5-dimethoxybenzoyl)-7-methoxy-3,4-dihydro-2H-isoquinolin-1-one] | > 100 | 180 to 181 | 
11 | COc1cc2c(cc1O)CCN(Cc1ccc(OC)c(OC)c1OC)C2 [compound 58, 6-Hydroxy-7-methoxy-2-(2,3,4-trimethoxybenzyl)-1,2,3,4-tetrahydroisoquinoline] | > 100 | 65 to 66 | 
12 | COc1ccccc1COc1cc2c(cc1OC)C(=O)N(Cc1ccccc1OC)CC2 [compound 156, 7-Methoxy-2-(2-methoxybenzyl)-6-(2-methoxybenzyloxy)-3,4-dihydro-2H-isoquinolin-1-one] | > 100 | 133 to 134 | 
13 | COc1cc2c(cc1OCc1ccccc1)CCN(Cc1cccc(N)c1)C2 [compound 34, 2-(3-Aminobenzyl)-6-(benzyloxy)-7-methoxy-1,2,3,4-tetrahydroisoquinoline] | > 100 | 114 to 115 | 
14 | COc1cc2c(cc1O)CCN(C(=O)c1ccccc1OC)C2=O [compound 138, 6-Hydroxy-7-methoxy-2-(2-methoxybenzoyl)-3,4-dihydro-2H-isoquinoline-1-one] | < 10 | 199 to 200 | 
15 | COc1cc2c(cc1OCc1ccccc1)CCN(S(=O)(=O)c1cccc(C)c1)C2 [compound 171, 6-Benzyloxy-7-methoxy-2-(toluene-3-sulfonyl)-1,2,3,4-tetrahydroisoquinoline] | > 100 | 144 to 147 | 
16 | COc1cc2c(cc1O)CCN(C(=O)c1cccc(C#N)c1)C2=O [compound 144, 2-(3-Cyanobenzoyl)-6-hydroxy-7-methoxy-3,4-dihydro-2H-isoquinoline-1-one] | 50 to 100 | 197 to 198 | 
17 | COc1ccc(C(=O)N2CCc3cc(OCc4ccccc4)c(OC)cc3C2)cc1 [compound 108, 7-Methoxy-2-(4-methoxybenzoyl)-6-benzyloxy-1,2,3,4-tetrahydroisoquinoline] | 10 to 50 | 126 to 127 | 

Other lines, results leading:

Row | GI50 (DU145 cells; triplicate) [µM] | melting point [°C] | GI50 (DU145 cells; 50% growth inhibition) [µM] | SMILES
18 | 50 to 100 | 71 to 72 |  | COc1cccc(CN2CCc3cc(OCc4ccccc4)c(OC)cc3C2)c1 [compound 4, 6-Benzyloxy-7-methoxy-2-(3-methoxybenzyl)-1,2,3,4-tetrahydroisoquinoline]
19 | > 100 | 151.9 to 152.6 |  | COc1cc2c(cc1O)CCN(Cc1ccccc1O)C2 [compound 69, 2-(2-Hydroxybenzyl)-6-hydroxy-7-methoxy-1,2,3,4-tetrahydroisoquinoline]
20 | > 100 | 161 to 162 |  | COc1cccc(CN2CCc3cc(O)c(OC)cc3C2)c1 [compound 40, 6-Hydroxy-7-methoxy-2-(3-methoxybenzyl)-1,2,3,4-tetrahydroisoquinoline]
21 | 50 to 100 | 122 to 124 |  | COc1cc2c(cc1O)CCN(Cc1cccc(OC(F)(F)F)c1)C2 [compound 68, 6-Hydroxy-7-methoxy-2-(3-trifluoromethoxybenzyl)-1,2,3,4-tetrahydroisoquinoline]
22 | 10 to 50 | 141 to 142 |  | COc1cccc(C(=O)N2CCc3cc(O)c(OC)cc3C2)c1 [compound 116, 6-Hydroxy-7-methoxy-2-(3-methoxybenzoyl)-1,2,3,4-tetrahydroisoquinoline]
23 | > 100 | 105 to 106 |  | CCOc1cccc(CN2CCc3cc(O)c(OC)cc3C2)c1 [compound 63, 2-(3-Ethoxybenzyl)-6-hydroxy-7-methoxy-1,2,3,4-tetrahydroisoquinoline]
24 | > 100 | 168 to 170 |  | COc1cccc(S(=O)(=O)N2CCc3cc(O)c(OC)cc3C2)c1 [compound 178, 6-Hydroxy-7-methoxy-2-(3-methoxy-benzenesulfonyl)-1,2,3,4-tetrahydroisoquinoline]
25 | > 100 | 181 to 182 |  | COc1cccc(CN2CCc3cc(O)c(OC)cc3C2=O)c1 [compound 160, 6-Hydroxy-7-methoxy-2-(3-methoxy-benzyl)-3,4-dihydro-2H-isoquinolin-1-one]
26 | > 100 | 162 to 163 |  | COc1ccc(CN2CCc3cc(O)c(OC)cc3C2)cc1 [compound 39, 6-Hydroxy-7-methoxy-2-(4-methoxybenzyl)-1,2,3,4-tetrahydroisoquinoline]
27 | > 100 | 125 to 127 |  | COc1cc2c(cc1O)CCN(Cc1cccc(F)c1)C2 [compound 60, 2-(3-Fluorobenzyl)-6-hydroxy-7-methoxy-1,2,3,4-tetrahydroisoquinoline]
28 | > 100 | 134 to 135 |  | COc1cc2c(cc1O)CCN(Cc1ccccc1)C2 [compound 38, 2-Benzyl-6-hydroxy-7-methoxy-1,2,3,4-tetrahydroisoquinoline]
